Test results published in US11357786B2, “Synthetic disugar hydrocarbons as natural analogs to control microbial behaviors” (Syracuse University, priority 2014, dated 2022).
Entries after “also recorded” stand apart in the source; their conditions may differ.

Assays:
Type in all cases: cell-based, Pseudomonas aeruginosa
[1] = system: nonswarming P. aeruginosa mutant rhlA; assay: Swarming motility of nonswarming rhlA mutant on soft agar (reactivation / agonist assay); conditions: for Reactivation of swarming motility of rhlA mutant: concentration not given; for Swarming reactivation of rhlA mutant: 110 μM in soft agar; for Concentration that suppresses reactivation of rhlA swarming by DβC: co-administered with 40 μM DβC
Method in brief: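 rhlA transposon mutant of PAO1 (3 μl, OD600 0.4–0.6) inoculated on M8 soft agar (0.2% glucose, 0.5% casamino acids, 1 mM MgSO4, 0.5% agar) with test compound to find swarming agonists. Incubated 12 h at 37 °C plus 12 h at room temperature; swarm area measured by weighing paper cut-outs of imaged swarms.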

PAO1-GFP = assay: microbe, parasite or virus in culture
Description: (§1) A crystal violet (CV) assay was used to measure the amount of PAO1 biofilm formed after 24 h of bacterial inoculation. The fluorescence of green fluorescent proteins (GFP) expressed by PAO1-GFP was measured to directly quantify bacterial adhesion on polystyrene black 96 well plates with and without maltose derivatives after 2 h of bacterial inoculation. To evaluate the potential of maltose derivatives as both anti-biofilm and anti-adhesion agents, they were compared to a brominated furanone (BF8) known to inhibit biofilm formation, and two generic surfactants, sodium dodecyl sulfate (SDS) and tetra (ethylene glycol) monododecyl ether (C12EG4OH). […] P. aeruginosa strain PAO1-EGFP that constitutively producing green fluorescent protein was allowed to form biofilm on sterile steel coupons.
Overnight culture of PAO1-GFP was subcultured to an OD600 of 0.01 into the 95:5 M9+:Lb medium. Subculture was allowed to reach the OD600 of 0.1 in a rotary shaker at 250 rpm and 37° C. 200 μL of the subculture was then transferred to the wells of black microtiter plate with and without (control) maltose derivatives. This black 96 well plate was then incubated in a shaker at 37° C. for 2 h. After 2 h, bacterial culture from the plate was discarded and each well was washed once with saline water (0.85 w/v % aqueous NaCl solution). Fresh 95:5 M9+:Lb medium was added to the black 96 well plate and fluorescence of the surface adhered bacteria was measured by Synergy 2 multi-mode microplate reader with Gen5 data analysis software at an excitation wavelength of 500 nm and an emission wavelength of 540 nm. Background signal from 95:5 M9+:Lb medium was eliminated from all the samples.

PAO1 biofilm = assay: Crystal violet dye based biofilm inhibition assay, maltose derivatives (Example 1); conditions: for Inhibition of PAO1 biofilm: 110 μM, 24 h, CV assay; for Anti-biofilm activity (inhibition): concentration not given
Description: as §1
Inhibitory effect of all the maltose hydrocarbons on P. aeruginosa biofilm formation was determined by crystal violet dye based biofilm inhibition assays. Overnight culture of wild type P. aeruginosa (PAO1) was sub cultured to an OD600 of 0.01 into the 95:5 M9+:Lb medium. 200 μL of the sub culture was aliquoted into the wells of 96 well polystyrene microtiter plate when it reached the OD600 of 0.1. Predetermined concentrations of the test compounds were then added to the respective wells containing sub culture. Sample plates were wrapped in GLAD Press n′ Seal® followed by incubation under stationary conditions for 24 h at 37° C. After incubation the media was discarded and the plates were washed with water and dried for 1 h at 37° C. The sample plates were stained with 200 μL of 0.1% aqueous solution of crystal violet (CV) and followed by incubation at ambient temperature for 20 min. The CV stain was then discarded and the plates were washed with water. The remaining biofilm adhered stain was re-solubilized with 200 μL of 30% acetic acid. After the stain was dissolved (15 minutes), 100 μL of the solubilized CV was transferred from each well into the corresponding wells of a new polystyrene microtiter dish. Biofilm inhibition was quantified by measuring the OD600 of each well in which a negative control lane wherein no biofilm was formed served as a background and was subtracted out. The percent inhibition was calculated by the comparison of the OD600 for biofilm grown in the absence of compound (control) versus biofilm grown in the presence of compound under identical conditions.
(§2) Predetermined amounts maltose derivatives stock solution was added to the 200 μL bacterial culture in 96 well plate so that the final concentration of the agent reaches the desired values of 1, 5, 10, 20, 40, 85, 113, 140 μM. Biofilm inhibition and dispersion assay was carried as described previously.

24 h old PAO1 biofilm = assay: Crystal violet biofilm dispersion assay, maltose derivatives (Example 1); conditions: concentration not given
Description: Chemical dispersion of already formed biofilm is often more relevant to medical application, and more challenging than biofilm inhibition assays, for which the agents are introduced at the onset of an experiment. We screened the ability of maltose derivatives at 110 μM to disperse 24 h old biofilm.
PAO1 was allowed to grow for 24 h at 37° C. After 24 h, bacterial culture was pipetted out and replaced with 200 μL of 110 μM maltose hydrocarbons and sterile water (control). After 1 h treatment with maltose hydrocarbons, biofilm was fixed and quantified using crystal violet dye as described above. The amount of dispersed biofilm was determined via comparison of the amount of biofilm at 24 h in the presence of maltose hydrocarbons versus the amount of biofilm in the “no compound” positive control at 24 h (wells with water treatment).
as §2

wild type PAO1 = assay: Swarming motility of wild type PAO1 on soft agar (antagonist assay); conditions: for Swarming of wild type PAO1: 110 μM in soft agar; for Effect on PAO1 swarming: concentration not given; for Concentration of activity reversal for swarming inhibition of PAO1 (transition concentration): soft agar
Method in brief: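 Wild-type PAO1 culture (OD600 ~0.4–0.6, 3 μl) spotted on M8 swarm agar with 0.2% glucose, 0.5% casamino acids, 1 mM MgSO4 and 0.5% agar. Plates incubated 12 h at 37 °C then 12 h at room temperature; swarm area measured by cutting and weighing printed plate images.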

[2] = 85 μM in soft agar (0.5%), 24 h

Structure (SMILES): CCCCCCCCCCCCOCCOCCOCCOCCO [C12EG4OH, tetra (ethylene glycol) monododecyl ether, reference compound]
- Reactivation of swarming motility of rhlA mutant [1]: do not reactivate the swarming motility; also recorded: did not promote or reactivate
- Reactivation of swarming motility of rhlA mutant ([1]; listed as C12EG5OH): did not incur any bioactivity
- Inhibition of PAO1-EGFP adhesion on polystyrene (PAO1-GFP; 85 μM, 2 h): about 40%
- Inhibition of PAO1 biofilm (PAO1 biofilm): did not show any noticeable biofilm inhibition
- Anti-biofilm activity (inhibition) (PAO1 biofilm): did not show any anti-biofilm activities
- Anti-biofilm activity (dispersion) (24 h old PAO1 biofilm): did not show any anti-biofilm activities

Structure (SMILES): CC(C)CCCC(C)CCCC(C)CCO[C@@H]1O[C@H](CO)[C@@H](O[C@@H]2O[C@H](CO)[C@@H](O)[C@H](O)[C@H]2O)[C@H](O)[C@H]1O (stereo partly drawn) [SFβC (12), saturated famesyl-β-cellobioside]
- Swarming motility of rhlA mutant ([1]; 20 μM): did not activate the swarming motility
- Swarming motility of rhlA mutant [1, 2]: no apparent effect on rhlA
- Swarming reactivation of rhlA mutant ([1]; 24 h, listed as 12: SFbC): does not reactivate the swarming of rhlA mutant
- Swarming reactivation of rhlA mutant ([1]; 24 h, listed as 12: SFβC): incapable of reactivating the swarming
- Concentration that suppresses reactivation of rhlA swarming by DβC [1]: 20 µM
- Concentration that suppresses reactivation of rhlA swarming by DβC ([1]; listed as SFβC): ≤ 20 µM
- Concentration of activity reversal for swarming promotion of rhlA mutant (transition concentration) ([1]; soft agar): ~8 µM
- Concentration range in which swarming of rhlA is reactivated ([1]; soft agar, 24 h): 5-12 W
- Concentration of activity reversal for swarming promotion of rhlA mutant (transition concentration) ([1]; soft agar, listed as 12): 8 µM
- Concentration up to which there is no interference with swarming reactivation of rhlA by DβC ([1]; with 40 μM DβC): up to 10 μM
- Concentration exhibiting inhibition of PAO1 swarming (wild type PAO1): > 20 µM
- Concentration exhibiting promotion of PAO1 swarming (wild type PAO1): < 10 µM
- Swarm ring of wild type PAO1 as percent of PAO1 without DSHs (wild type PAO1; 20 μM): ~5%
- Swarming motility of wild type PAO1 (wild type PAO1; 20 μM): did inhibit the swarming activity of wild type PAO1
- Swarm ring area of wild type PAO1 (wild type PAO1; 20 μM, control 24 cm2): ~1.2 cm2
- Swarming motility of wild type PAO1 (wild type PAO1; 20 μM, listed as 12): stronger inhibition than rhamnolipids
- Swarming motility of wild type PAO1 (wild type PAO1; 85 μM in soft agar, 24 h): inhibited the swarming motility of wild type PAO1
- Swarming of wild type PAO1 (wild type PAO1; 24 h, listed as 12: SFbC): inhabits the swarming of wt PAO1
- Swarming of wild type PAO1 (wild type PAO1; 24 h, listed as 12: SFβC): completely inhibited the swarming of wt PAO1
- Effect on PAO1 swarming (wild type PAO1): inhibitors for PAO1 swarming motility
- Concentration of activity reversal for swarming inhibition of PAO1 (transition concentration) (wild type PAO1): ~10 to 20 µM
- Concentration of activity reversal for swarming inhibition of PAO1 (transition concentration) (wild type PAO1; listed as 12): 10 to 20 µM

Structure (SMILES): CC(C)CCCC(C)CCCC(C)CCO[C@@H]1O[C@H](CO)[C@@H](O[C@H]2O[C@H](CO)[C@@H](O)[C@H](O)[C@H]2O)[C@H](O)[C@H]1O (stereo partly drawn) [SFβM (14), saturated farnesyl-β-maltoside]
- Swarming area of rhlA ([1]; 10 μM, 24 h): ~14 cm2
- Swarming motility of rhlA mutant [1, 2]: no apparent effect on rhlA
- Swarming reactivation of rhlA mutant ([1]; 24 h): incapable of reactivating the swarming
- Concentration of activity reversal for swarming promotion of rhlA mutant (transition concentration) ([1]; soft agar): ~10 µM
- Concentration of activity reversal for swarming promotion of rhlA mutant (transition concentration) ([1]; soft agar, listed as 14): 10 µM
- Concentration at which tendrils were induced in PAO1 (wild type PAO1): ~7.5 µM
- Swarming motility of wild type PAO1 (wild type PAO1; 20 μM): stronger inhibition than rhamnolipids
- Swarming motility of wild type PAO1 (wild type PAO1; 85 μM in soft agar, 24 h): inhibited the swarming motility of wild type PAO1
- Swarming of wild type PAO1 (wild type PAO1; 24 h): completely inhibited the swarming of wt PAO1
- Concentration of activity reversal for swarming inhibition of PAO1 (transition concentration) (wild type PAO1): ~7.5 µM
- Concentration of activity reversal for swarming inhibition of PAO1 (transition concentration) (wild type PAO1; listed as 14): 7.5 µM

Structure (SMILES): CCCCCCCCCCCCOS(=O)(=O)[O-].[Na+] [SDS, sodium dodecyl sulfate, reference compound]
- Reactivation of swarming motility of rhlA mutant ([1]; sulfate): do not reactivate the swarming motility; also recorded: did not incur any bioactivity; also recorded: did not promote or reactivate
- inhibition at 85 µM (PAO1-GFP; Pseudomonas aeruginosa, PAO1, 2 h, read-out: Inhibition of PAO1-EGFP adhesion on polystyrene): ~40%
- Inhibition of PAO1 biofilm (PAO1 biofilm): did not show any noticeable biofilm inhibition
- Anti-biofilm activity (inhibition) (PAO1 biofilm): did not show any anti-biofilm activities
- Anti-biofilm activity (dispersion) (24 h old PAO1 biofilm): did not show any anti-biofilm activities

Structure (SMILES): CC(C)CCCC(C)CCCC(C)CCO[C@H]1O[C@H](CO)[C@@H](O[C@@H]2O[C@H](CO)[C@@H](O)[C@H](O)[C@H]2O)[C@H](O)[C@H]1O (stereo partly drawn) [SFαC (13), saturated farnesyl-α-cellobioside]
- Swarming motility of rhlA mutant [1, 2]: no apparent effect on rhlA
- Swarming reactivation of rhlA mutant ([1]; 24 h): incapable of reactivating the swarming
- Swarming motility of wild type PAO1 (wild type PAO1; 85 μM in soft agar, 24 h): inhibited the swarming motility of wild type PAO1
- Swarming of wild type PAO1 (wild type PAO1; 24 h): completely inhibited the swarming of wt PAO1
- Effect on PAO1 swarming (wild type PAO1): inhibitors for PAO1 swarming motility
